Test results from US8633242B2, “Benzylidene indanones and processes for preparation and use thereof” (Council of Scientific and Industrial Research, priority 2011, dated 2014).

Experiments:
HeLa (Cervix) = assay: Sulphorhodamine B cytotoxicity assay, HeLa; assay type: cell-based, human; design: key to Human cancer cell lines IC50, HeLa (Cervix): Inactive: inactive, if IC50 > 100 μM; settings: for IC50 / Human cancer cell lines IC50, HeLa (Cervix): SRB assay, 48 hours incubation; for IC50: read-out: Human cancer cell lines IC50, HeLa (Cervix)
Procedure: (§1) The benzylidene analogues were evaluated by Sulphorhodamine B Assay as per reported method [Skehan et al., J. Natl. Cancer Inst. 1990, 82, 1107]. The human cancer cell lines procured from National Cancer institute, Frederick, U.S.A. were used in present study. Cells were grown in tissue culture flasks in complete growth medium (RPMI-1640 medium with 2 mM glutamine, pH 7.4 supplemented with 10% fetal bovine serum, 100 μg/ml streptomycin and 100 units/ml penicillin) in a carbon dioxide incubator (37° C., 5% CO2, 90% RH). The cells at subconfluent stage were harvested from the flask by treatment with trypsin (0.05% in PBS (pH 7.4) containing 0.02% EDTA). Cells with viability of more than 98%, as determined by trypan blue exclusion, were used for determination of cytotoxicity. The cell suspension required concentration of cells was prepared in complete growth medium. Stock solution of 2×10^−2 M of compounds were prepared in DMSO and further dilution was carried out complete growth medium containing 50 μg/ml of gentamycin to obtained working test solution of required concentration. In vitro cytotoxicity against various human cancer cell lines was determined using 96-well cell culture plates. The 100 μl of cell suspension was added to each well of the 96-well cell culture plates. The cells were allowed to grow in CO2 incubator (37° C., 5% CO2, 90% RH) for 24 hours. The test materials in complete growth medium (100 μl) were added after 24 hours incubation to the wells containing cell suspension. The plates were further incubated for 48 hours (37° C. in an atmosphere of 5% CO2 and 90% relative humidity) in a carbon dioxide incubator after addition of test material and then the cell growth was stopped by gently layering trichloroacetic acid (50% TCA, 50 μl) on top of the medium in all the wells. The plates were incubated at 4° C. for one hour to fix the cells attached to the bottom of the wells. The liquid of all the wells was gently pipetted out and discarded. The plates were washed five times with distilled water to remove TCA, growth medium low molecular weight metabolites, serum proteins etc. and air-dried. Cell growth was measured by staining with sulforhodamine B dye. The adsorbed dye was dissolved in Tris-HCl Buffer (100 μl/well, 0.01M, pH 10.4) and plates were gently stirred for 10 minutes on a mechanical stirrer. The optical density (OD) was recorded on ELISA reader at 540 nm. 5-Fluorouracil, Paclitaxel (Taxol), Mitomycin-c and Adriamycin were used as positive controls.

HCT (Colon) = assay: Sulphorhodamine B cytotoxicity assay, HCT; assay type: cell-based, human; design: key to Human cancer cell lines IC50, HCT (Colon): Inactive: inactive, if IC50 > 100 μM; settings: for IC50: read-out: Human cancer cell lines IC50, HCT (Colon)
Procedure: as §1

THP-1 (Leukemia) = assay: Sulphorhodamine B cytotoxicity assay, THP-1; assay type: cell-based, human; design: key to Human cancer cell lines IC50, THP-1 (Leukemia): Inactive: inactive, if IC50 > 100 μM; settings: for IC50: read-out: Human cancer cell lines IC50, THP-1 (Leukemia)
Procedure: as §1

MCF-7 (Breast cancer) = assay: Sulphorhodamine B cytotoxicity assay, MCF-7; assay type: cell-based, human; design: key to Human cancer cell lines IC50, MCF-7 (Breast cancer): Inactive: inactive, if IC50 > 100 μM; settings: for IC50: read-out: Human cancer cell lines IC50, MCF-7 (Breast cancer)
Procedure: as §1

PC-3 (prostate) = assay: Sulphorhodamine B cytotoxicity assay, PC-3; assay type: cell-based, human; design: key to Human cancer cell lines IC50, PC-3 (prostate): Inactive: inactive, if IC50 > 100 μM; settings: SRB assay, 48 hours incubation
Procedure: as §1

tubulin protein = assay: In-vitro tubulin polymerisation inhibition assay; assay type: biochemical; design: key to Tubulin polymerisation inhibition IC50: Inactive: inactive, if IC50 > 10 μM; settings: for IC50: read-out: Tubulin polymerisation inhibition IC50; for IC50 / Tubulin polymerisation inhibition IC50: tubulin 3 mg/mL, 37° C., 340 nm, 1 h
Procedure: The tubulin polymerization experiment was performed using ‘assay kit’ (Cytoskeleton USA) following manufacturer's protocol based on the procedure described by of Shelanski et al. (1973) and Lee et al. (1977). Briefly, tubulin protein (3 mg/mL) in tubulin polymerization buffer (80 mM PIPES, pH 6.9, 2 mM MgCl2, 0.5 mM EGTA, 1 mM GTP and 15% glycerol) was placed in pre-warmed 96-well microtiter plates at 37° C. in the presence of test compounds with variable concentrations. All samples were mixed well and polymerization was monitored kinetically at 340 nm every min for 1 h using a Spectramax plate reader. Podophyllotoxin and etoposide were used as positive controls and DMSO as negative control. The IC50 value was determined from dose-dependent analysis and is defined as the concentration that inhibits the rate of polymerization by 50%.
Podophyllotoxin and etoposide, standard tubulin polymerisation inhibitors were used as positive controls.

DU-145 (prostate) = assay: Sulphorhodamine B cytotoxicity assay, DU-145; assay type: cell-based, human; design: key to Human cancer cell lines IC50, DU-145 (prostate): Inactive: inactive, if IC50 > 100 μM; settings: SRB assay, 48 hours incubation
Procedure: as §1

A549 (Lung) = assay: Sulphorhodamine B cytotoxicity assay, A549; assay type: cell-based, human; design: key to Human cancer cell lines IC50, A549 (Lung): Inactive: inactive, if IC50 > 100 μM; settings: SRB assay, 48 hours incubation; for IC50: Homo sapiens, A549, read-out: Human cancer cell lines IC50, A549 (Lung)
Procedure: as §1

[1] = Homo sapiens, MCF7, SRB assay, 48 hours incubation
[2] = Homo sapiens, SRB assay, 48 hours incubation
[3] = Homo sapiens, THP-1, SRB assay, 48 hours incubation

SMILES	Human cancer cell lines IC50, PC-3 (prostate) (PC-3 (prostate))	IC50 (HeLa (Cervix); Homo sapiens, HeLa)	melting point	IC50 (MCF-7 (Breast cancer); [1])	IC50 (HCT (Colon); [2])	inhibition of tubulin polymerisation, in words (tubulin protein)	IC50 (tubulin protein)	IC50 (THP-1 (Leukemia); [3])	Human cancer cell lines IC50, DU-145 (prostate) (DU-145 (prostate))	IC50 (A549 (Lung))	Human cancer cell lines IC50, HeLa (Cervix) (HeLa (Cervix))	Tubulin polymerisation inhibition IC50 (tubulin protein)	Human cancer cell lines IC50, A549 (Lung) (A549 (Lung))	further results
O=c1[nH]cc(F)c(=O)[nH]1 [5-Fluorouracil, reference compound]														inhibition at 20 µM (HeLa (Cervix); Homo sapiens, HeLa, positive control at 20 μM): 70%; inhibition at 20 µM (HCT (Colon); Homo sapiens, positive control at 20 μM): 65%; inhibition at 20 µM (THP-1 (Leukemia); Homo sapiens, THP-1, positive control at 20 μM): 74%
COc1cccc2c1C(=O)c1c(O)c3c(c(O)c1C2=O)C[C@@](O)(C(=O)CO)C[C@@H]3O[C@H]1C[C@H](N)[C@H](O)[C@H](C)O1 [Adriamycin, reference compound]														inhibition at 1 µM (MCF-7 (Breast cancer); Homo sapiens, MCF7, positive control at 1 μM): 65%
COc1cc(/C=C2\C(=O)c3cc(OC)c(OC)c(OC)c3C2c2cc(OC)c(OC)c(OC)c2)cc(OC)c1OC (centres unmarked) [Compound 9, 2-(3″,4″,5″-trimethoxybenzylidene), 3-(3′,4′,5′-trimethoxyphenyl)-4,5,6-trimethoxy indan-1-one]	Inactive	82.3 µM	118 to 120 °C	38.9 µM	39.7 µM	strong inhibition	4.62 µM	64.9 µM	Inactive	67.6 µM				
COc1ccc(/C=C2\C(=O)c3cc(OC)c(OC)c(OC)c3C2c2cc(OC)c(OC)c(OC)c2)cc1 (centres unmarked) [Compound 10, 2-(4″-methoxybenzylidene),3(3′,4′,5′-trimethoxyphenyl)-4,5,6-trimethoxy indan-1-one]		21 µM	188 to 190 °C	3.18 µM	18.6 µM	strong inhibition	4.67 µM	0.88 µM		13.4 µM				IC50 (PC-3 (prostate); Homo sapiens, read-out: Human cancer cell lines IC50, PC-3 (prostate)): 65.7 µM; anticancer activity against human breast cancer cells (MCF-7), in words (MCF-7 (Breast cancer)): potent anticancer activity; activity against leukemia cell lines (THP), in words (THP-1 (Leukemia)): potent activity; IC50 (DU-145 (prostate); Homo sapiens, DU-145, read-out: Human cancer cell lines IC50, DU-145 (prostate)): 44.9 µM
COc1cc(C2/C(=C/c3ccc([N+](=O)[O-])cc3)C(=O)c3cc(OC)c(OC)c(OC)c32)cc(OC)c1OC (centres unmarked) [Compound 11, 2-(4″-nitrobenzlidene),3-(3′,4′,5′-trimethoxyphenyl)-4,5,6-trimethoxy indan-1-one]	Inactive		190 to 192 °C	88.1 µM	97.3 µM			89.5 µM	Inactive		Inactive	Inactive	Inactive	
COc1cc(C2/C(=C/c3cccc([N+](=O)[O-])c3)C(=O)c3cc(OC)c(OC)c(OC)c32)cc(OC)c1OC (centres unmarked) [Compound 12, 2-(3″-nitrobenzylidene),3-(3′,4′,5′-trimethoxyphenyl)-4,5,6-trimethoxy indan-1-one]	Inactive		215 to 217 °C						Inactive		Inactive	Inactive	Inactive	Human cancer cell lines IC50, MCF-7 (Breast cancer) (MCF-7 (Breast cancer); SRB assay, 48 hours incubation): Inactive; Human cancer cell lines IC50, HCT (Colon) (HCT (Colon); SRB assay, 48 hours incubation): Inactive; Human cancer cell lines IC50, THP-1 (Leukemia) (THP-1 (Leukemia); SRB assay, 48 hours incubation): Inactive
